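Tested at 5 concentrations; 48 h exposure; 96-well plates; endpoints linearly interpolated, else capped at highest concentration. GI50 = concentration required for 50% inhibition of growth.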 Activity calls are given as the source filed them. No stated cut-off is given here; in the data, active = GI50 up to about 1.1 µM and inactive = higher.
Experiments:
Assay in all cases: NCI anticancer screen, dose series, 48 h
786-0 = system: 786-0
SK-MEL-28 = system: SK-MEL-28
NCI-H23 = system: NCI-H23
U-251 = system: U-251
SNB-19 = system: SNB-19
M14 = system: M14
SK-MEL-5 = system: SK-MEL-5
SK-MEL-2 = system: SK-MEL-2
UACC-257 = system: UACC-257
CAKI-1 = system: CAKI-1
IGROV-1 = system: IGROV-1
SF-268 = system: SF-268
SK-OV-3 = system: SK-OV-3
HCT-116 = system: HCT-116
NCI-H226 = system: NCI-H226
LOX IMVI = system: LOX IMVI
A549 = system: A549
HCC 2998 = system: HCC 2998

Measured: GI50

COc1ccc(CN(CCN(C)C)c2ccccn2)cc1.Cn1c(=O)c2[nH]c(Br)nc2n(C)c1=O
inactive: 786-0 > 100 µM | SK-MEL-28 > 100 µM | NCI-H23 > 100 µM | U-251 > 100 µM | SNB-19 > 100 µM | M14 > 100 µM | SK-MEL-5 > 100 µM | SK-MEL-2 > 100 µM | UACC-257 > 100 µM | CAKI-1 > 100 µM | IGROV-1 > 100 µM | SF-268 > 100 µM | SK-OV-3 > 100 µM

COc1ccc2c(c1)c(Cc1c(C)n(C)c3ccc(OC)cc13)c(C)n2C
inactive: 786-0 86.1 µM | SK-MEL-28 > 100 µM | NCI-H23 > 100 µM | HCT-116 > 100 µM | U-251 > 100 µM | SNB-19 > 100 µM | NCI-H226 > 100 µM | M14 > 100 µM | SK-MEL-5 > 100 µM | SK-MEL-2 > 100 µM | UACC-257 > 100 µM | LOX IMVI > 100 µM | CAKI-1 > 100 µM | A549 > 100 µM | IGROV-1 > 100 µM | SF-268 > 100 µM | SK-OV-3 > 100 µM

Cc1cc(=O)cc2sc3c(C)cccc3nc1-2
inactive: 786-0 17.6 µM | SK-MEL-28 23.1 µM | NCI-H23 37.2 µM | HCT-116 22.4 µM | U-251 37.1 µM | SNB-19 > 100 µM | M14 21.8 µM | SK-MEL-5 17.7 µM | SK-MEL-2 17.7 µM | UACC-257 62.8 µM | LOX IMVI 17.3 µM | CAKI-1 39.9 µM | A549 63.5 µM | IGROV-1 24.9 µM | SF-268 11.5 µM | SK-OV-3 > 100 µM | HCC 2998 51.4 µM

Cc1ccc(S(=O)(=O)N2CCN(C=S)CC2)cc1
inactive: 786-0 > 100 µM | SK-MEL-28 > 100 µM | NCI-H23 > 100 µM | HCT-116 > 100 µM | U-251 > 100 µM | SNB-19 > 100 µM | M14 > 100 µM | SK-MEL-5 > 100 µM | SK-MEL-2 > 100 µM | UACC-257 > 100 µM | LOX IMVI > 100 µM | A549 > 100 µM | IGROV-1 > 100 µM | SF-268 > 100 µM | SK-OV-3 > 100 µM | HCC 2998 > 100 µM

CCCCCCC(=O)C/C(=N/NC(N)=S)C(=O)NC1C2CC3CC(C2)CC1C3 (configuration not stated)
inactive: 786-0 > 100 µM | SK-MEL-28 > 100 µM | NCI-H23 > 100 µM | HCT-116 > 100 µM | U-251 > 100 µM | SNB-19 > 100 µM | NCI-H226 > 100 µM | M14 > 100 µM | SK-MEL-5 > 100 µM | SK-MEL-2 > 100 µM | UACC-257 > 100 µM | LOX IMVI > 100 µM | A549 > 100 µM | IGROV-1 > 100 µM | SF-268 > 100 µM | HCC 2998 > 100 µM

S=C1SCC2CCCN12 (configuration not stated)
inactive: 786-0 > 100 µM | HCT-116 > 100 µM | U-251 > 100 µM | SNB-19 > 100 µM | M14 > 100 µM | SK-MEL-5 > 100 µM | SK-MEL-2 > 100 µM | UACC-257 > 100 µM | LOX IMVI > 100 µM | CAKI-1 > 100 µM | A549 > 100 µM | IGROV-1 > 100 µM | SF-268 > 100 µM | SK-OV-3 > 100 µM | HCC 2998 > 100 µM

CN1CCc2c1nc(-c1ccc(Cl)cc1)c1c2N(C)CC1
inactive: 786-0 > 100 µM | NCI-H23 14.8 µM | HCT-116 1.85 µM | U-251 3.74 µM | SNB-19 22.5 µM | M14 7.71 µM | SK-MEL-5 10.5 µM | SK-MEL-2 > 100 µM | UACC-257 13.7 µM | LOX IMVI 5.01 µM | CAKI-1 6.44 µM | A549 18.3 µM | IGROV-1 3.06 µM | SF-268 21.5 µM | SK-OV-3 21.2 µM | HCC 2998 19.4 µM

CC(C)(C)[Si](C)(C)OC1C(=O)C[C@H]2CCCC[C@@H]12 (some centres not stated)
inactive: 786-0 > 100 µM | NCI-H23 > 100 µM | HCT-116 > 100 µM | U-251 > 100 µM | SNB-19 > 100 µM | M14 > 100 µM | SK-MEL-5 > 100 µM | SK-MEL-2 > 100 µM | UACC-257 > 100 µM | LOX IMVI > 100 µM | CAKI-1 > 100 µM | A549 > 100 µM | IGROV-1 > 100 µM | SF-268 > 100 µM | SK-OV-3 > 100 µM | HCC 2998 > 100 µM

O=C(NN1C(=O)C(Cl)C1c1c(O)ccc2ccccc12)c1ccccc1O (configuration not stated)
inactive: 786-0 > 100 µM | SK-MEL-28 > 100 µM | NCI-H23 > 100 µM | HCT-116 > 100 µM | U-251 > 100 µM | SNB-19 > 100 µM | NCI-H226 > 100 µM | M14 > 100 µM | SK-MEL-5 > 100 µM | SK-MEL-2 > 100 µM | UACC-257 > 100 µM | LOX IMVI > 100 µM | A549 > 100 µM | IGROV-1 > 100 µM | SF-268 > 100 µM | SK-OV-3 > 100 µM
